According to the supplement of paper PMC10307832:

Key:
Assay in all cases: relative viability (nuclei count vs DMSO), 5 days (fraction); higher = more cells survive
Zebularine + Alpelisib = compound: O=c1ncccn1[C@@H]1O[C@H](CO)[C@@H](O)[C@H]1O [Zebularine] + Cc1nc(NC(=O)N2CCC[C@H]2C(N)=O)sc1-c1ccnc(C(C)(C)C(F)(F)F)c1 [Alpelisib] (partner 2 µM)
How it was run: (§1)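 A single step with final 0.05% Triton X-100, 1% formaldehyde and 1 ug/ml Hoechst fixed the cells and stained nuclei 5 days after treatment. Lung cancer cell lines in 1536-well plates had been treated by pin tool the day after seeding with one drug alone or a fixed anchor-drug dose plus five library-drug doses (not always all listed) in √10 steps, and nuclei were counted on 4× images. Relative viability is the ratio of nuclei in treated wells to nuclei in vehicle wells, taken as the median of duplicate plates.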

Zebularine + Tozasertib = compound: O=c1ncccn1[C@@H]1O[C@H](CO)[C@@H](O)[C@H]1O [Zebularine] + Cc1cc(Nc2cc(N3CCN(C)CC3)nc(Sc3ccc(NC(=O)C4CC4)cc3)n2)n[nH]1 [Tozasertib] (partner 0.1 µM)
How it was run: as §1

Zebularine + Palbociclib = compound: O=c1ncccn1[C@@H]1O[C@H](CO)[C@@H](O)[C@H]1O [Zebularine] + CC(=O)c1c(C)c2cnc(Nc3ccc(N4CCNCC4)cn3)nc2n(C2CCCC2)c1=O [Palbociclib] (partner 0.5 µM)
How it was run: as §1

Zebularine + Phenformin = compound: O=c1ncccn1[C@@H]1O[C@H](CO)[C@@H](O)[C@H]1O [Zebularine] + N=C(N)NC(=N)NCCc1ccccc1 [Phenformin] (partner 250 µM)
How it was run: as §1

Cell Line	relative viability (Zebularine + Alpelisib; first compound 1 µM)	relative viability (Zebularine + Alpelisib; first compound 3.162 µM)	relative viability (Zebularine + Alpelisib; first compound 10 µM)	relative viability (Zebularine + Alpelisib; first compound 31.62 µM)	relative viability (Zebularine + Alpelisib; first compound 100 µM)	relative viability (Zebularine + Tozasertib; first compound 1 µM)	relative viability (Zebularine + Tozasertib; first compound 3.162 µM)	relative viability (Zebularine + Tozasertib; first compound 10 µM)	relative viability (Zebularine + Tozasertib; first compound 31.62 µM)	relative viability (Zebularine + Tozasertib; first compound 100 µM)	relative viability (Zebularine + Palbociclib; first compound 1 µM)	relative viability (Zebularine + Palbociclib; first compound 3.162 µM)	relative viability (Zebularine + Palbociclib; first compound 10 µM)	relative viability (Zebularine + Palbociclib; first compound 31.62 µM)	relative viability (Zebularine + Palbociclib; first compound 100 µM)	relative viability (Zebularine + Phenformin; first compound 1 µM)	relative viability (Zebularine + Phenformin; first compound 3.162 µM)	relative viability (Zebularine + Phenformin; first compound 10 µM)	relative viability (Zebularine + Phenformin; first compound 31.62 µM)	relative viability (Zebularine + Phenformin; first compound 100 µM)
NCI-H661	0.653	0.498	0.333	0.737	0.603	0.338	0.346	0.381	0.361	0.396	0.406	0.4	0.425	0.435	0.438	0.279	0.269	0.28	0.275	0.264
NCI-H727	–	0.531	0.564	0.665	0.485	0.639	0.645	0.602	0.623	0.386	0.652	0.729	0.69	0.634	0.618	0.628	–	–	0.693	0.528
NCI-H838	1.04	1.05	0.707	0.857	0.404	0.251	0.304	0.239	0.216	0.163	0.222	0.257	0.223	0.238	0.219	0.695	0.668	0.549	0.509	0.285
NCI-H1355	0.856	0.798	0.728	0.635	0.385	0.56	0.516	0.484	0.328	0.34	0.402	0.371	0.384	0.303	0.252	0.507	0.45	0.425	0.403	0.294
NCI-H1395	1.32	0.941	0.82	0.785	0.598	0.72	0.707	0.647	0.501	0.479	0.664	0.659	0.621	0.512	0.518	0.455	0.454	0.398	0.361	0.372
NCI-H1437	1.16	1.03	–	1.14	0.319	0.44	0.381	0.254	0.397	0.304	0.308	0.33	0.308	0.453	0.329	0.333	0.311	0.229	0.328	0.376
NCI-H1651	0.875	1.05	–	0.769	0.527	0.869	0.679	0.389	0.623	0.455	0.525	0.491	0.507	0.557	0.352	0.347	0.401	0.273	0.369	0.256
NCI-H1666	1.16	0.984	0.852	0.932	0.618	0.612	0.633	0.538	0.662	0.486	0.629	0.642	0.58	0.689	0.654	0.594	0.551	0.531	0.591	0.495
NCI-H1734	0.738	0.725	0.387	0.396	0.347	0.284	0.247	0.263	0.206	0.207	0.408	0.334	0.322	0.3	0.239	0.444	0.363	0.26	0.282	0.24
